Like-named read-outs stand apart in the source and are kept apart here.
How the values were obtained:
recombinant O.lotOBP6 = assay: Fluorescence competitive binding assay with 1-NPN probe; set-up: species or system Odontothrips loti; conditions: for IC50: 1× PBS pH 7.2~7.4, room temperature, triplicates, read-out: IC50 (concentration of ligand halving the initial fluorescence value of 1-NPN)
Method: Fluorescence was measured on a F-7000 fluorescence spectrophotometer (Hitachi, Tokyo, Japan) at room temperature with a 1 cm light path quartz cuvette and 10 nm slits for both excitation and emission. The fluorescent probe N-phenyl-1-naphthylamine (1-NPN) was excited at 337 nm, and emission was recorded between 370 and 520 nm. The pure protein was dissolved with 1× PBS (pH 7.2~7.4) at a final concentration of 2 μM. The ligands and 1-NPN were dissolved in methanol at the concentration of 1 mM.
To measure the affinity of 1-NPN to O.lotOBP6, a 2 μM solution of protein in 2 mL 1× PBS was titrated with 1-NPN to final concentrations of 0.25~8 μM. The affinity of ligands was measured by the titration of the O.lotOBP6/1-NPN complex at the concentration of 2 μM by adding ligand to final concentrations of 0.25~10 μM. The dissociation constants of the competitors were calculated by the equation Ki = IC50/(1 + [1-NPN]/K1-NPN), where IC50 is the concentration of ligands halving the initial fluorescence value of 1-NPN, [1-NPN] is the free concentration of 1-NPN, and K1-NPN is the dissociation constant of the complex O.lotOBP6/1-NPN. Experiments were performed in triplicates. GraphPad Prism 7.0 was used to perform nonlinear regression analysis on the standard curve and the dissociation curve.

[1] = test system: Megalurothrips usitatus adults; set-up: method as in PMID 32246573; conditions: field trials, cited from earlier work
adult O. loti = assay: Y-tube olfactometer choice tests with volatiles; format: in vivo, Odontothrips loti; conditions: volatile 10 ng/μL in paraffin oil vs paraffin oil control, chi-square test; for Response of male adult O. loti in Y-tube olfactometer: male adults
Method: In the behavioral assays, the female and male adults were reared together, while 3–5 days old female and male adults were collected separately by reproductive morphology. Eleven ligands with high binding affinities to O.lotOBP6/1-NPN complex based on fluorescence binding assays were used in the test. The responses of female and male O. loti to 11 volatiles (Table 3) were measured derived from M. sativa (Liu Y-Q, unpublished data) or semiochemicals previously used in Y-tube olfactometer bioassays. The glass Y-tube consisted of a stem and two arms (10 cm long, 1 cm in diameter) separated from each other at an angle of 75°. Air drawn into the olfactometer was first purified by active charcoal, moistened by distilled water in a gas-washing bottle, and split into two streams, with a flow rate of 50 mL min^−1. Two glass flasks (100 mL) provided test and control odor sources. Connections between the components of the olfactometer apparatus were made with Teflon tubes. Olfactometer experiments were carried out in a dark room at 26 ± 1 °C. Light was provided by a LED light (28 W), which was placed at the Y end of the olfactometer. The volatile sample of 10 ng/μL was dissolved in paraffin oil as the test odor source, with the control sample being paraffin oil. A single O. loti was introduced to the base tube of the Y-tube and observed for 5 min. When the test thrip entered a half-length of either arm of the Y-tube and stayed for 1 min, the choice was recorded. […] After five test thrips were tested, the odor sources were swapped to avoid directional effects in the apparatus. To avoid the effects of travelling residual odors of test thrips, ten test thrips tests were followed by a new Y-tube, which was cleaned with 75% ethanol and oven dried at 60 °C for 30 min. Sixty biological replicates were carried out for each female or male treatment. Results were analyzed by Chi-square test using IBM SPSS 22.

[2] = O.lotOBP6/1-NPN complex 2 μM, calculated from IC50, read-out: Ki (dissociation constant, Ki = IC50/(1 + [1-NPN]/K1-NPN))
[3] = competitive fluorescence binding curves, read-out: Ki (high binding affinities with the O.lotOBP6/1-NPN complex)

Structure (SMILES)	IC50 (recombinant O.lotOBP6; O.lotOBP6/1-NPN complex 2 μM) [nM]	Ki (recombinant O.lotOBP6; [2]) [nM]	Ki (recombinant O.lotOBP6; [3]) [nM]	further results
c1ccc(Nc2cccc3ccccc23)cc1 [1-NPN, N-phenyl-1-naphthylamine, reference compound]				Kd (recombinant O.lotOBP6; 2 μM protein titrated with 1-NPN 0.25~8 μM, Scatchard equation, read-out: Dissociation constant of recombinant O.lotOBP6 protein to 1-NPN): 1050 nM
CCCCC(CC)CO (centres unmarked) [2-Ethyl-1-hexanol]	3800 ± 310	1570 ± 130	< 10000	
CC(=O)OC/C=C(\C)CC/C=C(\C)CCC=C(C)C [(2E,6E)-farnesyl acetate]				Duration of attraction effect ([1]; dose of 60 μg): at least 6 days; Attractiveness to adults compared to the control [1]: significantly more attractive
O=Cc1ccccc1 [Benzaldehyde]	1620 ± 120	670 ± 50	< 10000	
CCOC(=O)c1cccnc1 [Ethyl nicotinate]	> 50000			
CC12CCC(CC1)C(C)(C)O2 [Eucalyptol]	2060 ± 50	850 ± 20	< 10000	
Cc1cccc(C)c1 [m-Xylene]	8410 ± 310	3470 ± 130	< 10000	
COc1ccc(C=O)cc1 [p-Anisaldehyde]	4590 ± 640	1890 ± 260	< 10000	

Further lines, with some results ahead:

IC50 (recombinant O.lotOBP6; O.lotOBP6/1-NPN complex 2 μM) [nM]	Ki (recombinant O.lotOBP6; [2]) [nM]	Ki (recombinant O.lotOBP6; [3]) [nM]	Structure (SMILES)	further results
> 50000			C=CCCC=O [4-Pentenal]	
5580 ± 380	2300 ± 160	< 10000	CC/C=C\CCOC(=O)CCC [(Z)-3-Hexenyl butyrate]	Response of male adult O. loti in Y-tube olfactometer (adult O. loti): significantly attracted
> 50000			Cc1cc(C(C)(C)C)c(O)c(C(C)(C)C)c1 [Butylated hydroxytoluene]	
> 50000			C=C(C)[C@H]1CC=C(C)CC1 [D-Limonene]	
6920 ± 240	2860 ± 100	< 10000	C=CC(C)(O)CCC=C(C)C (centres unmarked) [Linalool]	
1400 ± 90	580 ± 40	< 10000	CCCCCCCCC=O [Nonanal]	
1100 ± 10	450	< 10000	O=Cc1ccccc1O [Salicylaldehyde]	
2600 ± 440	1070 ± 180	< 10000	CCCCCCCCCCCCC [Tridecane]	
340 ± 30	140 ± 10	< 10000	C=C(C)C1CCC(C)C(=O)C1 (centres unmarked) [p-Menth-8-en-2-one]	Response of female adult O. loti in Y-tube olfactometer (adult O. loti; female adults): significantly attracted; Response of male adult O. loti in Y-tube olfactometer (adult O. loti): significantly attracted
> 50000			CC1=CCC2CC1C2(C)C (stereo not drawn) [α-Pinene]	

From article PMC10048907, “Antennal Transcriptome Analysis of Olfactory Genes and Characterization of Odorant Binding Proteins in Odontothrips loti (Thysanoptera: Thripidae)” (International Journal of Molecular Sciences, 2023)
